In patent US8816070B2, “Triazole derivative as an HSP 90 inhibitor” (Merck Patent GmbH, priority 2007, dated 2014):

Key:
[1] = molecular target: T1, Recombinant human HSP90α (Homo sapiens, UniProt P07900); assay: HSP90 radioligand filter binding test ([3H]17AAG competition)
T1 construct: host or cells: E. coli
Text: The binding of geldanamycin or 17-allylamino-17-demethoxygeldanamycin (17AAG) to HSP90 and competitive inhibition thereof can be utilised in order to determine the inhibitory activity of the compounds according to the invention (Carreras et al. 2003, Chiosis et al. 2002).
In the specific case, a radioligand filter binding test is used. The radioligand used here is tritium-labelled 17-allylaminogeldanamycin, [3H]17AAG. This filter binding test allows a targeted search for inhibitors which interfere with the ATP binding site.
Recombinant human HSP90α (E. coli expressed, 95% purity); [3H]17AAG (17-allylaminogeldanamycin, [allylamino-2,3-^3H. Specific activity: 1.11×10^12 Bq/mmol (Moravek, MT-1717);
HEPES filter buffer (50 mM HEPES, pH 7.0, 5 mM MgCl2, BSA 0.01%) Multiscreen FB (1 μm) filter plate (Millipore, MAFBNOB 50).
The 96-well microtitre filter plates are firstly irrigated and coated with 0.1% of polyethylenimine.
At the end of the reaction, the supernatant in the filter plate is removed by suction with the aid of a vacuum manifold (Multiscreen Separation System, Millipore), and the filter is washed twice.
The filter plates are then measured in a beta counter (Microbeta, Wallac) with scintillator (Microscint 20, Packard).
“% of control” is determined from the “counts per minutes” values and the IC50 value of a compound is calculated therefrom.

[2] = Relative stability of polymorphic forms of C1; assay type: physicochemical; conditions: form A1 versus form A2 of C1
Text: Two polymorphic forms A1 and A2 of the compound “C1” according to the invention can be isolated.
Form A2 can be converted into A1, for example by stirring in solvents such as methanol, ethanol, acetone, DMF, acetic acid, formic acid, THF or isopropanol.

higher activity in HSP90 inhibition compared with "A47" ([1]; C1 versus A47 from the closest prior art) | IC50 ([1]; [3H]17AAG 0.08 μM, 22° C., 30 min, read-out: HSP90 inhibition IC50) [nM] | thermodynamic stability of polymorphic form [2] | SMILES
approximately 10 times | 29 | – | CCCCN(C)C(=O)c1cc(-c2n[nH]c(=O)n2-c2ccccc2C)c(O)cc1O [Compound C1, 5-[4-(2-methylphenyl)-3-hydroxy-4H-1,2,4-triazol-5-yl]-2,4-dihydroxy-N-methyl-N-butylbenzamide]
– | – | thermodynamically more stable form | CCCCN(C)C(=O)c1cc(-c2nnc(O)n2-c2ccccc2C)c(O)cc1O [Form A1, 5-[4-(2-methylphenyl)-3-hydroxy-4H-1,2,4-triazol-5-yl]-2,4-dihydroxy-N-methyl-N-butylbenzamide]
